These results are taken from patent publication US8258178B2, “Agents for preventing attachment of barnacle consisting of organic solvent extracts of red alga Laurencia sp. and compounds isolated therefrom” (Central Research Institute of Electric Power Industry, priority 2007, dated 2012).

Converted amounts (≈) assume the structure as drawn. Where two headings read alike, the source gives them in different places.

The subject of data set [1] is cypris larvae of Amphibalanus amphitrite. Put plainly: whole plant or invertebrate. It is filed as in vivo. The note with it: for EC50: Amphibalanus amphitrite, 48 h, read-out: EC50 of attachment•metamorphosis of cypris larvae. The protocol:
(§1) Adult samples of Amphibalanus amphitrite collected from Lake Hamanako, Shizuoka-ken in the breeding season (May to November in Hamanakako) were subject to drying stimulus for about 12 hours (drying stimulus refers to taking out barnacles out of the breeding water and let them dry), and then they were put into a water bath, thereby allowing eggs to hatch into nauplius larvae (if the adults are not in a breeding season, they are subject to food satiation breeding for about two weeks at a water temperature of 20° C. to 25° C., and after subjecting to drying stimulus for about 12 hours, they are housed in a water bath to allow eggs to hatch into nauplius larvae). […] At 5th day of breeding, the nauplius larvae metamorphosed into cypris larvae, which were collected using light or the like and refrigerated (4° C.) for two days, and then used for attachment•metamorphosis inhibition tests.
(§2) Into a 24-well multi plate made of polystyrene (Corning, Inc.) was put an ethanol solution in which a methanol extract of red algae laurencia sp. of the present invention or the compound of the present invention was dissolved, and allowed to dry, followed by charging of 2 mL filtered seawater. Six individual cypris larvae of Amphibalanus amphitrite were put into each well and bred at 25° C. for two to five days, and the number of individuals that metamorphosed from cypris larvae into barnacle immatures while attaching to the plate surface, the number of individuals not attached thereto and still swimming as cypris larvae, and the number of dead individuals were counted under a stereoscopic microscope. The tests were conducted using four wells each for a same concentration of the compound of the present invention, and the tests were repeated three or more times. […] Furthermore, the concentration at which the ratio of the number of attaching•metamorphosing individuals to the number of all the subject individuals after 2 days is one-half in comparison with the case not having the compounds of the present invention, was represented by EC50. Concentrations (μg/ml) were represented by the value obtained by dividing the amount of the methanol extract of red algae laurencia sp. (μg) or the amount of the compound (μg) added per well by 2 mL of filtered seawater added per well.

The nature of the next data set: in vivo. The format is in vivo. The note with it: Amphibalanus amphitrite (barnacle, cypris larvae), in vivo; concentration at which dead individuals after 5 days account for 50% of all individuals; read-out: LC50 (toxicity to larvae). The protocol: as §1, §2
The subject of a further data set is barnacle. The note with it: reported in Non-Patent Documents 1 and 2; cited from earlier work.
For data set [2] the following is noted: Non-Patent Document 7; cited from earlier work.
Where [3] appears, read: after 2 days, concentration at which ratio of attaching•metamorphosing individuals is one-half of the case without compound, 25° C., 24-well plate, 2 mL filtered seawater.

The EC50 is the concentration needed to bring the measured effect to its halfway point. A word on the LC50: it is the concentration that kills 50% of the test population. With `CC(C)=CCC[C@@](C)(O)[C@@H](O)CC[C@](C)(O)[C@H]1CC[C@H]2O[C@@H]([C@]3(C)CC[C@@H](Br)C(C)(C)O3)CC[C@]2(C)O1` [Magireol A], the EC50 in data set [1] stood at 0.3 µg/mL (≈ 0.509 µM). Further, the LC50 at 5 days in the data set “in vivo” worked out at 14.4 µg/mL (≈ 24.4 µM).
As for `CC/C(Br)=C\C=C\[C@@H](O)[C@H](Br)[C@@H]1O[C@@H](C=C=CBr)C[C@@H]1O` [Omaezallene], the EC50 in data set [1] (setting [3]) stood at 0.22 µg/mL. In addition, in the data set “in vivo”, the LC50 at 5 days was found to be 3.4 µg/mL (≈ 6.98 µM).
Turning to `C=C1C[C@H](O)[C@H](Br)C(C)(C)[C@@]12CCC(C)=C(Cl)C2` [elatol], the “barnacle attachment inhibitory activity” value in the data set with barnacle was “have a barnacle attachment inhibitory activity”.
Regarding `C=C1C[C@H](O)[C@H](Br)C(C)(C)[C@]12CC=C(C)CC2` [deschloroelatol], the “barnacle attachment inhibitory activity” value in the data set with barnacle was “have a barnacle attachment inhibitory activity”.
Consider `Cc1cc(O)c([C@]2(C)CC[C@@H]3C[C@@]32C)cc1Br` [laurinterol], for which the “barnacle attachment inhibitory activity” value in the data set on barnacle is “possess a barnacle attachment inhibitory activity”.
As for `C#C/C=C/C[C@@H](OC(C)=O)[C@H]1C/C=C\C[C@H](Br)[C@@H](CC)O1` [Laurencin], the “EC50 of attachment•metamorphosis of cypris larvae” value in data set [1] (setting [3]) amounted to 0.23 µg/mL. In data set [1] (at 100 μg/mL), the toxicity to larvae result was “no toxicity at all”.
`C=C1[C@@H](C)CC[C@@]1(C)c1cc(Br)c(C)cc1O` [isolaurinterol]: the “barnacle attachment inhibitory activity” value in the data set on barnacle was “possess a barnacle attachment inhibitory activity”.
Regarding `CC(C)(O)[C@H]1CC[C@](C)([C@@H](O)CC[C@](C)(O)[C@H]2CC[C@H]3O[C@@H]([C@]4(C)CC[C@@H](Br)C(C)(C)O4)CC[C@]3(C)O2)O1` [Thyrsiferol], the EC50 in data set [1] was found to be 0.11 µg/mL (≈ 0.182 µM). Also, the LC50 at 5 days in “in vivo” was 2.5 µg/mL (≈ 4.13 µM). Further, the cytotoxicity entry in data set [2] is “known to have cytotoxicity”.
For `CC[C@@H]1[C@@H]2[C@H]3OC(C=C=CBr)C[C@H]3O[C@]2(O)[C@@H](Br)C[C@H]1Br` (stereo partly drawn) [Hachijojimallene A], the “EC50 of attachment•metamorphosis of cypris larvae” value in data set [1] (setting [3]) was 0.15 µg/mL. Further, the “LC50 (toxicity to larvae)” value in data set [1] (concentration at which dead individuals after 5 days account for 50% of all individuals) is 9.8 µg/mL (≈ 20.1 µM).
